pIC50: −log10 of the molar value.
Legend:
[1] = system: human AML; experiment: in vivo mouse model of human AML (tumour growth); settings: oral administration, procedure of Example 236, FIG. 1
[2] = target: T1, MLLT1 (Homo sapiens, UniProt Q03111); experiment: MLLT1 degradation assay in MV4-11 cells (JESS chemiluminescent detection), three concentrations, 24 h; format: cell-based; settings: with respect to DMSO control
T1 construct: host or cells: MV4-11
T1 sequence (Q03111 1-559): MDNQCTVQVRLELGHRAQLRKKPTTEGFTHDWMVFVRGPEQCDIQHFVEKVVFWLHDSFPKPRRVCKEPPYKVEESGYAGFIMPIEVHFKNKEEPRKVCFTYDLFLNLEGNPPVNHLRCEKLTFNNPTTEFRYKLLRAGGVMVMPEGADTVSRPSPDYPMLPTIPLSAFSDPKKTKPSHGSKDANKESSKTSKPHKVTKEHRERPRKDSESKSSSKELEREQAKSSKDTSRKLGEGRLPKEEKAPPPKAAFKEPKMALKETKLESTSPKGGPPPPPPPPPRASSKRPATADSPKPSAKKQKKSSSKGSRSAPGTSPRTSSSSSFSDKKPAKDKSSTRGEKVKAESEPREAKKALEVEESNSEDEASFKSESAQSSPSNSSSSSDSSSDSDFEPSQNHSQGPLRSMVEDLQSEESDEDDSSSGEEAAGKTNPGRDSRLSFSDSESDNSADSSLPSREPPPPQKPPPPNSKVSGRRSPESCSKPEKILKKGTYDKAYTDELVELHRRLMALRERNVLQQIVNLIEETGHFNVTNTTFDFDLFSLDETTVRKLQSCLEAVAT
Summary of the method: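 Read-out is % MLLT1 degradation versus DMSO, from band peak areas on a JESS chemiluminescent system. Cells (MV4-11) were exposed for 24 h at 37° C to three compound levels, 10, 100 and 1000 nM, in 0.1% DMSO.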

[3] = system: MV4-11 cells; experiment: MV4-11 cellular proliferative assay, Assay Format A (CellTiter-Glo, 120 hours); format: cell-based; settings: Homo sapiens
Summary of the method: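 Over 120 h, MV4-11 cells seeded at 50 cells/well in IMDM/10% FBS were exposed to compound (10 semi-log dilutions, 30 μM top). Viability was read by CellTiter-Glo luminescence. Signals were normalised to DMSO and reference-compound wells, and AC50 came from a Hill fit.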

[4] = target: T2, MLLT3 (Mus musculus, UniProt A2AM29); experiment: MLLT3 degradation assay in NIH/3T3 cells (JESS), dose response, 5 h; format: cell-based
T2 construct: host or cells: NIH/3T3
T2 sequence (A2AM29 1-569): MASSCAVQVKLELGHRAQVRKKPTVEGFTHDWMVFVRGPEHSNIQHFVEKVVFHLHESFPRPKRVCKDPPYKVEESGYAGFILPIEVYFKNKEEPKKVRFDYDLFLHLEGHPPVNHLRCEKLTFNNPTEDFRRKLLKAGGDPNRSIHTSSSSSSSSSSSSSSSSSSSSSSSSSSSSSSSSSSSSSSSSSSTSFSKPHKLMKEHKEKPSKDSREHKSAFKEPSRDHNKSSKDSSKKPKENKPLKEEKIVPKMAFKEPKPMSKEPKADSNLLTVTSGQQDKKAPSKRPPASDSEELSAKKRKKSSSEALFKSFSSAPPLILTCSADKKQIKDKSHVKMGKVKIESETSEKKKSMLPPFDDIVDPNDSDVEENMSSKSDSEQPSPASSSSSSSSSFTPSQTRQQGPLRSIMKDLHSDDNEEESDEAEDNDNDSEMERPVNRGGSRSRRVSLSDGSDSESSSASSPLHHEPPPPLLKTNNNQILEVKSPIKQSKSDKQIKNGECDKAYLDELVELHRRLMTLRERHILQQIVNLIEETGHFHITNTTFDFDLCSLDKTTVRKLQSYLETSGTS
Method: MLLT3 degradation efficacy of compounds was tested in an automated chemiluminescent detection system (JESS, Cat #004-650). NIH/3T3 (#CRL-1658, ATCC) were seeded at a density of 0.5 million cells/well in a cell culture treated 6-well cell culture plate in 2 mL of complete medium (DMEM+10% FBS+IX Penicillin-Streptomycin) and incubated at 37° C., 5% CO2. The next day, 10 mM DMSO stocks were prepared, and cells were treated with eight concentrations of test compounds, starting from 100 nM, 5-fold dilution, at a final DMSO concentration of 0.1% and incubated for 5 h at 37° C., 5% CO2. Post incubation, cells were washed with HBSS and lysed in 70 μL of RIPA buffer supplemented with Protease inhibitors (sc-24948; Santa Cruz). Later, protein estimation was done using BCA protein assay kit (23228; Pierce). 4 μg protein lysate (4 μL of 1 μg/μL lysate) was loaded into each well of the JESS cartridge (SM-W004; Bio-techne) and the JESS run was performed using 1:200 dilution of anti-mouse MLLT3 antibody (#47577; CST) and 1:800 dilution of anti-human GAPDH antibody (2118; Cell signaling technology) with anti-rabbit secondary detection module (DM-001; Bio-Techne). Post run, data was analysed using “Compass for SW” software for chemiluminescent detection. Peak fit was done using “dropped lines” method. […]

Q: Which results are given for CN1CCC[C@@H]1c1cc2cnc(NC(=O)c3ccc(CCCC#Cc4cccc5c4CN(C4CCC(=O)NC4=O)C5=O)cc3)cc2[nH]1 (stereo partly drawn) [Example 55, 4-(5-(2-(2,6-dioxopiperidin-3-yl)-1-oxoisoindolin-4-yl)pent-4-yn-1-yl)-N-(2-((R)-1-methylpyrrolidin-2-yl)-1H-pyrrolo[3,2-c]pyridin-6-yl)benzamide]?
A: tumour growth [1]: reduction in tumour growth; MLLT1% Degradation @ 0.01 μM ([2]; 0.01 μM): A (Category A: A ≥ 75% degradation); MLLT1% Degradation @ 0.1 μM ([2]; 0.1 μM): A (Category A: A ≥ 75% degradation); MLLT1% Degradation @ 1 μM ([2]; 1 μM): A (Category A: A ≥ 75% degradation); pIC50 [3]: ≥ 7.00; DC50 [4]: 0.8 nM; Dmax ([4]; NIH3T3, maximum % degradation observed): 92%

From US20260191968A1, “PROTAC DEGRADERS OF MLLT1 AND/OR MLLT3” (DARK BLUE THERAPEUTICS LTD, priority 2024, published 2026)
